Measured values as given in patent publication US6683230B1, “Hybrid seed production” (Syngenta Limited, priority 1998, dated 2004).
Where two headings read alike, the source gives them in different places.

Tests used:
lac repressor = conditions: tobacco protoplasts and stable transformants; cited from earlier work
[1] = system: safener induced GST-27 promoter; experiment: Reversal of sterility in GST-27-barstar maize WU25 by safener; type: in vivo
Source text: The corn transformation vector Zm/RMS14 (described above) carries a barstar gene fused to the safener induced GST-27 promoter. WU25 was shown by PCR to contain this gene fusion. […] There was no effect of the safener on the size or fertility of tassels on non-transgenic fertile plants. […] The resumption of microspore development appears to be linked to the barstar inhibition of barnase thus overcoming the ablation of tapetal cells. […] In contrast, the anthers from sterile plants were collapsed.
The same promoter fragment was fused to barnase to generate the corn transformation vector ZM/RMS14 (FIG. 30). This fusion also contained an out of frame barstar gene with a functional bacterial promoter to provide protection against barnase during the cloning steps. Transgenic maize plants were obtained and several progressed for further analysis. One plant WU25 in particular was studied in some detail by analysing progeny derived from crosses with pollen from a fully fertile plant. All progeny inheriting the transgene as assessed by PCR and leaf paint to detect the pat gene were completely sterile, whereas progeny lacking the transgene were fully fertile. […] In all other respects sterile plants were indistinguishable from their fertile non-transgenic siblings.

AlcA promoter [2] = system: AlcA promoter
Protocol: (§1) Flower material was ground in 2-300 μl of extraction buffer (100 mM sodium phosphate buffer pH 7, 10 mM EDTA, 0.1% Triton X-100, 1% Sarcosyl, 10 mM b-mercaptoethanol). Samples were spun in a microcentrifuge for 15 min and 5 μl of the supernatant was used for Bradford protein assays with BSA as standard. 20 μl was diluted 1 in 5 with extraction buffer and 400 μl of assay buffer (same for extraction buffer except contains 1 mM 4-MUG and 20% methanol). 100 μl was taken (T0 sample) and added to 900 μl of stop buffer (0.2M sodium carbonate) and the rest was incubated at 37° C. for two hours before taking a further 100 μl (T2 samples) to be added to 900 μl stop buffer.
(§2) Florescence of samples was measured in a spectrophotometer and GUS was represented as nM 4M U per mg protein per hour.
(§3) For the GUS staining, the protocol of Blume and Grierson (1997) was used.

AlcA promoter [3] = conditions: ethanol vapour, two days after induction
Source text: Alc-GUS tomoato flowers were induced using ethanol vapour as described above for tobacco flowers. Two days after induction, anthers and pollen were stained to detect GUS expression.
as §3

AlcA promoter [4] = conditions: ethanol vapour, 2-3 days
Protocol: Scutellum tissue is bombarded with pUIRN.AGS and the tissue exposed to ethanol vapour. […] Transgenic Alc-GUS plants obtained are grown to maturity and seed harvested, inducible GUS expression is determined on the progeny plants in the same way as described above for rice.
as §3

AlcA promoter [5] = conditions: 0.1% (v/v) ethanol in medium, 3 weeks
Protocol: as §1, §2

AlcA promoter [6] = system: AlcA promoter; remark: listed apart in the source
Source text: 1) Oilseed rape (OSR) AlcA-GUS plants were root drenched with 250m1 of either water, 1% or 2% ethanol both on day 0 and day 1. Flower samples from these plants were then taken two days after the first induction.
The first two bars in each section represent uninduced anther and uninduced stigma/style GUS levels respectively. Each bar represents three replicates with each replicate containing anthers from three different flowers or stigma/styles from eight different flowers or ovaries from six different flowers.
2) Oilseed rape Aic-GUS flowers were subjected to GUS staining following induction with ethanol.
as §1, §2, §3

AlcA promoter [7] = conditions: after induction with ethanol
AlcA promoter [8] = system: AlcA promoter; remark: listed apart in the source

In the case of `CC(C)S[C@@H]1O[C@H](CO)[C@H](O)[C@H](O)[C@H]1O` [IPTG], the “repression of GUS expression by lac repressor” value (lac repressor) is given as “repression can be relieved”.

With `CC1CN(C(=O)C(Cl)Cl)C(C)(C)O1` (centres unmarked) [R-29148] the microsporogenesis ([1]; extended treatment with safener) was “anthers filled with immature post-mitotic pollen”, the “microspore development and tassel size” value ([1]; foliar application, field grown plants) was “A similar effect was seen” and the “size or fertility of tassels” value ([1]; non-transgenic fertile plants) was “no effect”. For the same molecule, the “microspore development in anthers” value ([1]; root drench, glass house) was “microspore development was observed”, the reversal of sterility ([1]; root drench, glass house grown plants) was “Reversal of sterility was demonstrated” and the tassel size ([1]; treated vs untreated transgenic plants) was “increased tassel size relative to untreated plants”.

With `CCO` [ethanol] the GUS in anthers (AlcA promoter [2]; cut flower stems in 1%, 2% or 5% ethanol, two days) was “induced by ethanol in the anthers at levels above those seen in the water treated flowers”, the “GUS staining of pistils” value (AlcA promoter [2]; root drench 250 ml 5% ethanol, two days) was “induction of GUS in the pistils” and the GUS in anthers (AlcA promoter [2]; vapour from 50 ml of 5% ethanol in sealed bag, 3 days) was “higher levels of GUS”. The “GUS staining of anthers and pollen” value (AlcA promoter [3]) was “blue staining was observed in both tissues”, the “GUS staining of bombarded scutellum tissue” value (AlcA promoter [4]) was “numerous blue spots are seen” and the “GUS levels in callus” value (AlcA promoter [5]) was “levels can be increased with the addition of ethanol”. For the same molecule, the “GUS levels, all tissues examined” value (AlcA promoter [6]; 2% ethanol root drench) was “increase in GUS from both uninduced levels and from the water-treated control plant”, the “GUS staining of pistils” value (AlcA promoter [6]; 5% ethanol treated plant vs water-treated) was “induction of GUS in the female tissues” and the “GUS staining of whole inflorescence” value (AlcA promoter [6]; cut flower stem in 5% ethanol, two days) was “Blue staining is apparent in the filaments, sepals, petals and the stigma/style regions of the flower”. The “GUS staining of pistil sections” value (AlcA promoter [6]; root drench 2% ethanol, two days) was “induction of GUS throughout the pistil region”, the “GUS levels in floral tissues” value (AlcA promoter [6]; root drench 250 ml 1% or 2% ethanol day 0 and day 1, sampled two days after first induction) was “increase in GUS levels in floral tissues” and the “GUS staining of flower” value (AlcA promoter [6]; two days after root drench with 250 ml of 5% ethanol) was “reporter gene induction in the stigma/style region as well as the filaments”. The “reporter gene (CAT) levels in floral tissues” value (AlcA promoter [7]) was “increase in reporter gene levels in floral tissues”, the “concentration at which induction of GUS expression was observed” value (AlcA promoter [8]; AlcA promoter) was 7 ng/100 ml air and the “toxicity to operators and environment” value (AlcA promoter [8]; in vivo) was “non-toxic to operators and to the environment”. The “concentration at which the inducer is effective” value (AlcA promoter [8]; root drench, aqueous spray or gas) was 1%.
